In US7786141B2 (Vertex Pharmaceuticals Incorporated, priority 2004, dated 2010):
Read-outs that look alike come from different tables or passages of the source.

Experiments:
M1 muscarinic receptor = molecular target: T1, M1 muscarinic receptor (Homo sapiens, UniProt P11229); assay: Functional mobilization of intracellular calcium (FLIPR) in M1-CHO cells; assay type: cell-based
T1 construct: expressed in transfected cells; host or cells: CHO (M1-CHO)
T1 sequence (P11229 1-460): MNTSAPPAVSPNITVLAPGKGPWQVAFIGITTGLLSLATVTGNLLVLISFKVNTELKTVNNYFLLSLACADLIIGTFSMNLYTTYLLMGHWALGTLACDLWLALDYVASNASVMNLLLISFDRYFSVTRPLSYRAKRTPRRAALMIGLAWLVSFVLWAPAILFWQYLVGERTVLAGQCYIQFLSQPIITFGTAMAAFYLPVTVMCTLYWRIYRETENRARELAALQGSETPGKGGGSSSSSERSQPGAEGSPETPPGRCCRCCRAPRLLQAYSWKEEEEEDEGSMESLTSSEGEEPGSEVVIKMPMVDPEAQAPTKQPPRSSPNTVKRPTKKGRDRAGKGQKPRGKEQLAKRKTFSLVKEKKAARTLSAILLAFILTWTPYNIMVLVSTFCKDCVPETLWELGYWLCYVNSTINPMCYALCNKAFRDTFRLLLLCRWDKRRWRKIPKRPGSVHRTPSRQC
Procedure, shortened: (§1)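 Two modes: direct compound addition for agonism, or 15 min compound pre-incubation (or co-application) before carbachol at EC80 for inhibition. Calcium signal from Fluo-3 AM or Calcium 3 dye in CHO cells, 1 mM probenecid, pH 7.4, read 60 sec at 488/540 nm; DMSO 0.5% final.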

M4 muscarinic receptor = molecular target: T2, M4 muscarinic receptor (Homo sapiens, UniProt P08173); assay: Functional mobilization of intracellular calcium (FLIPR) in M4-CHO cells; assay type: cell-based
T2 construct: expressed in transfected cells; host or cells: CHO (M4-CHO)
T2 sequence (P08173 1-479): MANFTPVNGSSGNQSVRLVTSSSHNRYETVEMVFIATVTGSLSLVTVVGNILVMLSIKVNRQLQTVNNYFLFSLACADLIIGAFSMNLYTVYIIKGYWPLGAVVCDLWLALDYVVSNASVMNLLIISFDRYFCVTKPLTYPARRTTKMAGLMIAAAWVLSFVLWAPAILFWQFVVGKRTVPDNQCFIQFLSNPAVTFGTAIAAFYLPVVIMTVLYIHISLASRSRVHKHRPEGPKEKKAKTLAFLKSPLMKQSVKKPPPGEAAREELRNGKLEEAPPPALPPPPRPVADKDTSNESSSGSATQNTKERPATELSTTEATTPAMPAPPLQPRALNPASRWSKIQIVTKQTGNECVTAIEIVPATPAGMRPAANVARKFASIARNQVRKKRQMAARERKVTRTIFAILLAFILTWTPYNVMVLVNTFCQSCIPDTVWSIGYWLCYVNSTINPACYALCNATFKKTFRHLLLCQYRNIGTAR
Procedure, shortened: as §1

[1] = M1 receptor, calcium mobilization
[2] = M1 receptor, calcium mobilization, read-out: M1 Efficacy
[3] = M4 receptor, calcium mobilization
[4] = M4 receptor, calcium mobilization, read-out: M4 Efficacy
[5] = Table 4, 100% efficacy is the maximum response obtained with the Carbachol control
[6] = Table 4, modulating M1 receptor
[7] = Table 4, modulating M4 receptor
[8] = M1-CHO cells, calcium mobilization (FLIPR)
[9] = M1-CHO cells, calcium mobilization (FLIPR), read-out: M1 Efficacy
[10] = M4-CHO cells, calcium mobilization (FLIPR)
[11] = M4-CHO cells, calcium mobilization (FLIPR), read-out: M4 Efficacy
[12] = Table 4, M1 receptor, calcium mobilization (FLIPR)
[13] = Table 4, M4 receptor, calcium mobilization (FLIPR)

Compound	M1 Activity (M1 muscarinic receptor; [1])	Emax (M1 muscarinic receptor; [2]) [%]	M4 Activity (M4 muscarinic receptor; [3])	Emax (M4 muscarinic receptor; [4]) [%]	Emax (M1 muscarinic receptor; [5]) [%]	Emax (M4 muscarinic receptor; [5]) [%]	further results
CCOC(=O)N1CCC(N2CCC3(CC2)CN(CCC(=O)CC)c2ccc(F)cc23)CC1 [compound 229]	xx (activity was measured to be between 0.1 μM and 1.0 μM)	< 65	xxx (activity was measured to be less than 0.1 μM)	> 85			
O=C(O[C@H]1CCOC1)N1C2CCC1CC(N1CCC3(CC1)C(=O)Nc1ccccc13)C2 (stereo partly drawn) [compound 301]	x (activity was measured to be greater than 1.0 μM)	< 65	x (activity was measured to be greater than 1.0 μM)	< 65			
CCO/N=C1\CC2(CCN(CC3CCCCC3)CC2)c2cc(Cl)ccc21 [compound 702]					25 to 100	25 to 100	M1 Activity (M1 muscarinic receptor; [6]): x (activity was measured to be greater than 5.0 μM); M4 Activity (M4 muscarinic receptor; [7]): x (activity was measured to be greater than 5.0 μM)
Clc1ccc2c(c1)C1(CCN([C@H]3C[C@@H]4CC[C@@H]3C4)CC1)CO2 [compound 1]	xx (activity was measured to be between 0.1 μM and 1.0 μM)	65 to 85	xx (activity was measured to be between 0.1 μM and 1.0 μM)	> 85			
Fc1ccc2c(c1)C1(CCN(C[C@@H]3C[C@H]4CC[C@H]3O4)CC1)CN2 [compound 429]							EC50 (M1 muscarinic receptor; [8]): 0.1 to 1 µM; Emax (M1 muscarinic receptor; [9]): < 65%; EC50 (M4 muscarinic receptor; [10]): > 1 µM; Emax (M4 muscarinic receptor; [11]): < 65%
COCCOC(=O)N1CCC(CN2CCC3(CC2)C[C@H](NC(C)=O)c2ccccc23)CC1 [compound 412]							EC50 (M1 muscarinic receptor; [8]): 0.1 to 1 µM; Emax (M1 muscarinic receptor; [9]): < 65%; EC50 (M4 muscarinic receptor; [10]): > 1 µM; Emax (M4 muscarinic receptor; [11]): < 65%
CCOC(=O)N1C2CCC1CC(N1CCC3(CC1)CNc1ccc(Cl)cc13)C2 (stereo not drawn) [compound 351]	xxx (activity was measured to be less than 0.1 μM)	65 to 85	xx (activity was measured to be between 0.1 μM and 1.0 μM)	> 85			
CCOC(=O)N1CCC(N2CCC3(CC2)CN(C(C)=O)c2ccc(-c4ccccc4F)cc23)CC1 [compound 146]	xxx (activity was measured to be less than 0.1 μM)	> 85	xxx (activity was measured to be less than 0.1 μM)	> 85			
CCCN1CC2(CCN(C[C@H]3C[C@H]4C=CC3C4)CC2)c2cc(F)ccc21 [compound 984]					25 to 100	25 to 100	M1 Activity (M1 muscarinic receptor; [12]): xx (activity was measured to be between 2.0 μM and 5.0 μM); M4 Activity (M4 muscarinic receptor; [13]): xxx (activity was measured to be less than 2.0 μM)
Cc1ccc2c(c1)C1(CCN(C3C4CCCC3CCC4)CC1)CN2 (stereo not drawn) [compound 72]	xxx (activity was measured to be less than 0.1 μM)	65 to 85	xx (activity was measured to be between 0.1 μM and 1.0 μM)	65 to 85			
CN(C)C(=O)N1CC2(CCN(C3CCN(C(=O)c4ccncc4)CC3)CC2)c2cc(F)ccc21 [compound 791]					25 to 100	< 25	M1 Activity (M1 muscarinic receptor; [6]): xx (activity was measured to be between 2.0 μM and 5.0 μM); M4 Activity (M4 muscarinic receptor; [7]): x (activity was measured to be greater than 5.0 μM)
CC(=O)N[C@H]1CC2(CCN([C@H]3C[C@@H]4CC[C@@H]3C4)CC2)c2ccccc21 [compound 274]	xxx (activity was measured to be less than 0.1 μM)	65 to 85	x (activity was measured to be greater than 1.0 μM)	> 85			
CC(=O)N[C@H]1CCC2(CCN(CC3CC4CCC3C4)CC2)c2ccccc21 (stereo partly drawn) [compound 655]					25 to 100	25 to 100	M1 Activity (M1 muscarinic receptor; [6]): xxx (activity was measured to be less than 2.0 μM); M4 Activity (M4 muscarinic receptor; [7]): xxx (activity was measured to be less than 2.0 μM)
COCCOC(=O)N1C2CCC1CC(N1CCC3(CC1)CN(C(C)=O)c1ccccc13)C2 (stereo not drawn) [compound 607]					25 to 100	25 to 100	M1 Activity (M1 muscarinic receptor; [6]): xxx (activity was measured to be less than 2.0 μM); M4 Activity (M4 muscarinic receptor; [7]): xxx (activity was measured to be less than 2.0 μM)
CCOC(=O)N1CCC(N2CCC3(CC2)CN(C(C)=O)c2c(-c4ccccc4)cccc23)CC1 [compound 857]					25 to 100	< 25	M1 Activity (M1 muscarinic receptor; [12]): x (activity was measured to be greater than 5.0 μM); M4 Activity (M4 muscarinic receptor; [13]): x (activity was measured to be greater than 5.0 μM)
CCOC(=O)N1CCC(N2CCC3(CC2)CN(C(C)=O)c2c(-c4ccccc4F)cccc23)CC1 [compound 661]					25 to 100	< 25	M1 Activity (M1 muscarinic receptor; [6]): x (activity was measured to be greater than 5.0 μM); M4 Activity (M4 muscarinic receptor; [7]): x (activity was measured to be greater than 5.0 μM)
CC#CCOC(=O)N1CC[C@@H](CN2CCC3(CC2)CN(C(C)=O)c2ccccc23)C1 [compound 886]					25 to 100	25 to 100	M1 Activity (M1 muscarinic receptor; [12]): xxx (activity was measured to be less than 2.0 μM); M4 Activity (M4 muscarinic receptor; [13]): xxx (activity was measured to be less than 2.0 μM)
CC(=O)NC1CC2(CCN(C[C@H]3C[C@H]4C=C[C@H]3C4)CC2)c2ccccc21 (stereo partly drawn) [compound 213]	xx (activity was measured to be between 0.1 μM and 1.0 μM)	65 to 85	x (activity was measured to be greater than 1.0 μM)	< 65			
CCOC(=O)N1CCC(N2CCC3(CC2)CN(C(C)=O)c2c(F)cc(F)cc23)CC1 [compound 579]					25 to 100	25 to 100	M1 Activity (M1 muscarinic receptor; [6]): xxx (activity was measured to be less than 2.0 μM); M4 Activity (M4 muscarinic receptor; [7]): xxx (activity was measured to be less than 2.0 μM)
CC(=O)N[C@H]1CCC2(CCN(C3CCC(C(C)(C)C)CC3)CC2)c2ccccc21 (stereo partly drawn) [compound 646]					25 to 100	< 25	M1 Activity (M1 muscarinic receptor; [6]): xxx (activity was measured to be less than 2.0 μM); M4 Activity (M4 muscarinic receptor; [7]): x (activity was measured to be greater than 5.0 μM)
CCOC(=O)N1CCC(CN2CCC3(CC2)C[C@H](NC(C)=O)c2ccccc23)CC1 [compound 250]	xx (activity was measured to be between 0.1 μM and 1.0 μM)	65 to 85	x (activity was measured to be greater than 1.0 μM)	65 to 85			
CC(=O)NC1CC2(CCN(CC3CC4C=CC3C4)CC2)c2ccccc21 (stereo not drawn) [compound 185]	x (activity was measured to be greater than 1.0 μM)		x (activity was measured to be greater than 1.0 μM)				M1 Efficacy (M1 muscarinic receptor; [1]): xx (efficacy was calculated to be between 85% and 65%); M4 Efficacy (M4 muscarinic receptor; [3]): xx (efficacy was calculated to be between 85% and 65%)
CCOC(=O)N1C2CCC1CC(N1CCC3(CC1)CN(C(=O)Nc1ccc(F)cc1)c1ccc(F)cc13)C2 (stereo not drawn) [compound 197]	xx (activity was measured to be between 0.1 μM and 1.0 μM)	< 65	x (activity was measured to be greater than 1.0 μM)	< 65			
CC(=O)N[C@H]1CC2(CCN(CC3CCN(C(=O)OC(C)C)CC3)CC2)c2ccccc21 [compound 399]							EC50 (M1 muscarinic receptor; [8]): 0.1 to 1 µM; Emax (M1 muscarinic receptor; [9]): 65 to 85%; EC50 (M4 muscarinic receptor; [10]): 0.1 to 1 µM; Emax (M4 muscarinic receptor; [11]): < 65%
CC(=O)N1CC2(CCN(C[C@H]3CCN(C(=O)OC(C)C)C3)CC2)c2ccccc21 [compound 864]					< 25	< 25	M1 Activity (M1 muscarinic receptor; [12]): x (activity was measured to be greater than 5.0 μM); M4 Activity (M4 muscarinic receptor; [13]): x (activity was measured to be greater than 5.0 μM)
COCCOC(=O)N1C2CCC1CC(N1CCC3(CC1)CN(C(=O)OC1CCC1)c1ccc(F)cc13)C2 (stereo not drawn) [compound 106]	xxx (activity was measured to be less than 0.1 μM)	65 to 85	xx (activity was measured to be between 0.1 μM and 1.0 μM)	< 65			
Clc1ccc2c(c1)C1(CCO2)CCN(C2CCCCC2)CC1 [compound 276]	xxx (activity was measured to be less than 0.1 μM)	65 to 85	x (activity was measured to be greater than 1.0 μM)	65 to 85			
